Results from publication PMC5247654, “Structural Mechanism Underpinning Cross-reactivity of a CD8^+ T-cell Clone That Recognizes a Peptide Derived from Human Telomerase Reverse Transcriptase” (The Journal of Biological Chemistry, 2016).
Read-outs that look alike come from different tables or passages of the source.

Key:
[1] = pMHC thermal stability by circular dichroism; format: physicochemical; conditions: CD thermal denaturation at 218 nm, PBS, ∼3 μM, 0.1-cm cell, two-state trimer-to-monomer fit
Protocol: Thermal stability of the HLA-A*0201-peptide complexes was assessed by circular dichroism spectroscopy, monitoring the change in ellipticities at 218 nm upon heating as described ([31]). Briefly, samples were prepared in PBS at a concentration of ∼3 μM and measured in 0.1-cm quartz cells. Melting curves were analyzed assuming a two-state trimer-to-monomer transition from the native to unfolded conformation and fitted as described ([43]). As all protein complexes aggregated to various degrees upon unfolding, the ellipticity of the unfolded state was set as a constant of −1.35 M^−1 cm^−1 ([44]).

ILA1 TCR [2] = conditions: SPR, cited from earlier work; for Kd: equilibrium binding
ILA1 TCR [3] = experiment: Surface plasmon resonance binding of ILA1 TCR to HLA-A*0201-ILA peptide variants; set-up: species or system human; conditions: 25 °C; for Kd: equilibrium binding, SPR, serial dilutions in duplicate, three independent experiments
Protocol: Binding analysis was performed in duplicate using a BIAcoreT200^TM equipped with a CM5 sensor chip as described previously ([45]). Approximately 200–500 response units of HLA-A*0201-[…] or HLA-A*0201-[…] peptide complex was attached to the CM5 sensor chip at a slow flow rate of 10 μl/min to ensure uniform distribution on the chip surface. […] For equilibrium analysis, 10 serial dilutions were prepared in duplicate for each sample and injected over the relevant sensor chips at 25 °C. TCR was injected over the chip surface using kinetic injections at a flow rate of 45 μl/min using HLA-A*0201-[…] as a negative control surface on flow cell 1. Results were analyzed using BIAevaluation^TM 3.1, Excel, and Origin 6.0 software. The equilibrium dissociation constant (KD) values were calculated assuming a 1:1 interaction by plotting specific equilibrium binding responses against protein concentrations followed by non-linear least square fitting of the Langmuir binding equation. For kinetics analysis, the kon and koff values were calculated assuming 1:1 Langmuir binding, and the data were analyzed using a global fit algorithm (BIAevaluation 3.1).

[4] = biological target: altered peptide ligand of human telomerase reverse transcriptase 540-548 peptide on HLA-A*02:01 (human); experiment: SPR, equilibrium binding; data from (17); soluble, other
[5] = biological target: altered peptide ligand of human telomerase reverse transcriptase 540-548 (A2-ILA8T) peptide on HLA-A*02:01 (human); experiment: SPR, equilibrium binding; data from (39); soluble, other
[6] = biological target: altered peptide ligand of human telomerase reverse transcriptase 540-548 peptide on HLA-A*02:01 (human); experiment: SPR, equilibrium binding; data from (17); soluble, other; remark: listed apart in the source
[7] = biological target: human telomerase reverse transcriptase peptide on HLA-A*02:01 (human); experiment: van 't Hoff analysis of SPR affinities at 5-37 °C; soluble, other
[8] = biological target: altered peptide ligand of human telomerase reverse transcriptase 540-548 peptide on HLA-A*02:01 (human); experiment: SPR, equilibrium binding; data from (16); soluble, other
[9] = biological target: altered peptide ligand of human telomerase reverse transcriptase 540-548 (A2-ILA3G8R) peptide on HLA-A*02:01 (human); experiment: SPR, equilibrium binding at 25 °C, new data of this article; soluble, other
[10] = biological target: altered peptide ligand of human telomerase reverse transcriptase 540-548 peptide on HLA-A*02:01 (human); experiment: SPR, equilibrium binding; kinetics n/m (too fast to measure); data from (39); soluble, other
[11] = biological target: altered peptide ligand of human telomerase reverse transcriptase 540-548 peptide on HLA-A*02:01 (human); experiment: as above; remark: listed apart in the source
[12] = biological target: altered peptide ligand of human telomerase reverse transcriptase 540-548 (A2-ILA8E) peptide on HLA-A*02:01 (human); experiment: SPR, equilibrium binding; kinetics n/m; data from (39); extremely weak against the index A2-ILA ([…] μM); soluble, other
[13] = biological target: altered peptide ligand of human telomerase reverse transcriptase 540-548 (A2-ILA8R) peptide on HLA-A*02:01 (human); experiment: SPR, equilibrium binding at 25 °C, new data of this article; kinetics n/m (too fast to measure); much weaker than the index A2-ILA ([…] μM); soluble, other
[14] = SPR BIAcore T200, ILA1 TCR injected over immobilised pMHC, 1:1 Langmuir global fit

| Substance | apparent Tm (melting temperature) [1] [°C] | koff (ILA1 TCR [2]) [s⁻¹] | kon (ILA1 TCR [2]) [M⁻¹ s⁻¹] | Kd (ILA1 TCR [2]) [µM] | further results |
| --- | --- | --- | --- | --- | --- |
| ILGKFLHTL | 55.6 | 0.05 | 19500 | 2.5 ± 0.5 | – |
| ILAKFLHRL | 60.9 | – | – | – | Kd (ILA1 TCR [3]): 151 ± 8 µM |
| ILAKFLHWL | 54.5 | – | – | – | – |
| ILAKFLHYL | – | – | – | 22.6 ± 2.1 | – |
| ILGKFLHWL | 49.8 | 0.05 | 16000 | 3.7 ± 0.2 | – |
| ILALFLHWL | – | 0.2 | 1700 | 117 ± 6 | – |
| ILGKFLHRL | 55.9 | – | – | – | koff (ILA1 TCR [3]; [14]): 0.16 s⁻¹; kon (ILA1 TCR [3]; [14]): 30000 M⁻¹ s⁻¹; Kd (ILA1 TCR [3]): 1 ± 0.1 µM |
| ILAKFLHTL | 58.7 | 0.08 | 2200 | 28 ± 5 | – |
| ILAKFLYWL | – | – | – | 82 ± 8 | – |
| ILA1 TCR | – | – | – | – | Kd [4]: 2.5 µM; Kd [5]: 28 µM; Kd [6]: 242 µM; TΔS [7]: 5.86 kcal/mol; Kd [8]: 117 µM; Kd [9]: 1 µM; Kd [10]: 22.6 µM; Kd [11]: 82 µM; Kd [12]: > 500 µM; Kd [13]: 151 µM |
| ILAKFLHEL | 58.8 | – | – | > 500 | – |
| ILAKYLHWL | – | 0.32 | 1300 | 242 ± 20 | – |
